Data taken from patent US5847125A, “Amino acid derivatives with anticholecystokinin activity” (James Black Foundation Limited, priority 1992, dated 1998).

How the values were obtained:
CCKA = molecular target: T1, CCKA (Cavia porcellus, UniProt Q63931); test: CCKA binding assay, pancreas membranes, [125I]-CCK8(S); design: species or system male guinea-pigs (Dunkin Hartley); conditions: guinea-pig pancreas membranes; [125I]-CCK8(S) 200 pM; 0.375 μM PD134,308; 150 minutes at 21°; non-specific binding 100 nM L-364,718; read-out: pKi CCKλ (converted)
T1 construct: The pancreatata were removed from male guinea-pigs (200-300 g; Dunkin Hartley); from tissue; host or cells: guinea-pig pancreas membranes
T1 sequence (Q63931 1-430): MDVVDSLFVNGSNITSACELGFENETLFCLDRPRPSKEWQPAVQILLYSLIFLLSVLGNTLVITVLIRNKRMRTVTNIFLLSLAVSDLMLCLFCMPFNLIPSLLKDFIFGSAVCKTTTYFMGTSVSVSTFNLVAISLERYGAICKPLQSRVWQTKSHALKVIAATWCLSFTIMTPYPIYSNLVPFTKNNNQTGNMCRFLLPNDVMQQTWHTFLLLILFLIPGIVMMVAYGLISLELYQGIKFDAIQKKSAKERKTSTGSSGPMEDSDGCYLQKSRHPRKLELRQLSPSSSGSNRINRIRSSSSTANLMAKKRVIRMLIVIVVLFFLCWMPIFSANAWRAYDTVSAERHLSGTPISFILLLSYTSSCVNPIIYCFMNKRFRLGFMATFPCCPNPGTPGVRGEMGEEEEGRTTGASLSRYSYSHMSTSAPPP
Procedure: The compounds of the examples were also tested in a CCKA binding assay as follows:
The pancreatata were removed from male guinea-pigs (200-300 g; Dunkin Hartley) and placed in ice-cold HEPES buffer (pH 7.2@21°±3°). The pancreatata were homogenised in 40 ml ice-cold HEPES buffer using a polytron (Brinkmann, PT10, setting 10) 4×1 second. The homogenate was centrifuged at 39,800 g for 15 min at 4°. The supernatant was discarded and the pellet re-suspended using a Teflon-in-glass homogeniser in 20 volumes of fresh buffer and re-centrifuged as above. The final pellet was re-suspended using a Teflon-in-glass homogeniser to a tissue concentration of 1 mg ml^31 1 (original wet weight), and filtered through 500 μm pore-size Nytex mesh.
The membranes (400 μl; containing 0.375 μM PD134,308) are incubated for 150 minutes at 21°±3° in a final volume of 0.5 ml with HEPES buffer containing [^125 I]--CCK8 (S) (50 μl; 200 pM) and competing compound. Total and non-specific binding of [^125 I]--CCK8 (S) are defined using 50 μl of buffer and 50 μl of 100 nM L-364,718 respectively. The assay is terminated by rapid filtration through pre-soaked Whatman GF/B filters using a Brandell Cell Harvester. The filters were washed (3×3 ml) with ice-cold 50 mM Tris HCl (pH 7.4 at 4°) and bound radioactivity is determined by counting (1 min) in a gamma counter.

CCKB receptor = molecular target: T2, CCKB receptor (Mus musculus, UniProt P56481); test: CCKB radioligand binding assay in mouse cortical membranes, [125I] CCK-8S (selectivity testing); design: species or system male mice; conditions: [125I] CCK-8S 200 pM, 150 min at 21°, pH 7.2, non-specific binding L-365,260, read-out: pKi CCKB (converted)
T2 construct: CCKB receptor in mouse cortical membranes; from tissue; host or cells: mouse cerebral cortex membranes (male mice, Charles River)
T2 sequence (P56481 1-453): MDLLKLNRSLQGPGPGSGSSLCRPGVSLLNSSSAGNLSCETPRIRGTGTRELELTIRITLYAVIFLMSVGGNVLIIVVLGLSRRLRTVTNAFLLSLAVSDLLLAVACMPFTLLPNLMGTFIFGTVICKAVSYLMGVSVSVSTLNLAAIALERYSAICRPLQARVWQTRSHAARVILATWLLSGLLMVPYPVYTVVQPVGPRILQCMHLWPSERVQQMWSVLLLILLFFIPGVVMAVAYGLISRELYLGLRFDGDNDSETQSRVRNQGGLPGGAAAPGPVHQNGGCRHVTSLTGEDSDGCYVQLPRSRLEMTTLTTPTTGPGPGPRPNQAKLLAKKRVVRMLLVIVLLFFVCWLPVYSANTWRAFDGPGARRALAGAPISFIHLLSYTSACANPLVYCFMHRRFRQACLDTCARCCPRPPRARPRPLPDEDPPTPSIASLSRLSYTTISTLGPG
Procedure: The compounds were assayed for selectivity with respect to the CCKB receptor in mouse cortical membranes by means of a radioligand binding assay. The procedure was as follows:
The whole brains from male mice (CDI 22-25 g; Charles River) were removed and placed in ice-cold buffer (pH 7.2 at 21°±3° C.) of the following composition (mM); 10 HEPES, 130 NaCl, 4.7 KCl, 5 MgCl2, 1 EDTA and containing 0.25 g. 1^-1 bacitracin.
The cortex was dissected, weighed and homogenised in 40 ml ice-cold buffer using a Teflon-in-glass homogeniser. The homogenate was centrifuged at 39,800 g for 20 min at 4° C., the supernatant discarded and the pellet resuspended by homogenisation in fresh buffer. The homogenate was recentrifuged (39,800 g; 20 min at 4° C.) and the final pellet was resuspended in HEPES buffer to give a tissue concentration of 2 mg ml^-1 (original wet weight).
The membranes (400 μl) were incubated for 150 min at 21°±3° C. in a final volume of 0.5 ml with HEPES buffer containing [^125 I] CCK-8S (0.05 ml; 200 pM NEN 2200Ci.mmol^-1) and competing compound. Total and non-specific binding of [^125 I] CCK-8S were defined using 0.05 ml of buffer and 0.05 ml of 10 mM L-365,260, respectively. The assay was terminated by rapid filtration through pre-soaked Whatman GF/B filters using a Brandell Cell harvester. The filters were washed (3×3 ml) with ice-cold 50 mM Tris-HCl (pH 7.4 at 4° C.) and bound radioactivity determined by counting (1 min.) in a gamma counter.

[1] = molecular target: T3, CCK (gallbladder) receptor (Cavia porcellus, UniProt Q63931); test: CCK-receptor bioassay, isolated guinea-pig gall-bladder strip preparations, CCK-8 as agonist; format: cell-based, male Dunkin-Hartley guinea-pigs; conditions: negative log10 of equilibrium dissociation constant; guinea-pig gall-bladder strips; CCK-8 agonist; test compound incubated for 60 minutes; 37° C; read-out: pKB versus CCK (gallbladder) (converted)
T3 construct: Isolated, strip preparations were prepared from gall-bladders removed from male Dunkin-Hartley guinea-pigs; from tissue; host or cells: guinea-pig gall-bladder strips
T3 sequence (Q63931 1-430): T1 sequence (Q63931 1-430)
Procedure: The compounds of the examples were assayed using a CCK-receptor bioassay as follows:
Isolated, strip preparations were prepared from gall-bladders removed from male Dunkin-Hartley guinea-pigs (250-500 g body weight) according to the method of La Morte, W. W., et al., J.P.E.T., 217, (3), 638-644 (1981).
The complete gall-bladder is removed and opened along the longitudinal axis. Strips measuring 3 mm in the longitudinal axis and 1 mm in the transverse axis are cut and then tied with cotton to stainless steel wires. The preparation is connected to a GRASS FTO3 isometric transducer under an initial loading tension of 1 g and is immersed in 20 mls of Krebs solution maintained at 37° C. and gassed with 95% O2 /5% CO2. The Krebs solution is as detailed above in connection with the fundus assay, except that the Ca^2+ concentration is decreased to 0.5 mM. After 30 mins the preparation is washed. Drug addition begins after an initial 90 min stabilisation period. Responses are measured as changes in tension from that immediately prior to any drug addition. Single cumulative agonist concentration-effect curves, using CCK-8 as agonist, are obtained on each preparation in the absence and presence of test compound which has been incubated for 60 minutes. The antagonist activity of the test compound is estimated and expressed as the negative logarithm (base 10) of the equilibrium dissociation constants (pKB) using the modifications of standard competitive analysis described by Black et al., Br. J. Pharmacol.,86,571-579, (1985) and Shankley et al., Br. J. Pharmacol.,94,264-274 (1988).

Row | Ki (CCKA) [µM] | Ki (CCKB receptor) [µM] | Kb [1] [µM] | Compound
1 | 0.126 | 5.01 | 0.158 | CCCCCCN(CCCCCC)C(=O)[C@H](CC(=O)O)NS(=O)(=O)c1ccc2ccccc2c1 [Example 4, 2-Naphthalenesulphonyl-L-aspartyl dihexylamide]
2 | 0.501 | 25.1 | 0.501 | CC(C)(C)CCNC(=O)[C@H](CC(=O)O)NS(=O)(=O)c1ccc2ccccc2c1 [Example 6, 2-Naphthalenesulphonyl-L-aspartyl (3,3-dimethyl)-butylamide]
3 | 6.31 | 10 | 6.31 | O=C(O)C[C@H](NS(=O)(=O)c1ccc2ccccc2c1)C(=O)N1CCC2(CCCC2)CC1 [Example 13, 2-Naphthalenesulphonyl-L-aspartyl 3-azaspiro[5.4]decylamide]
